Assay results reported in ChEMBL document CHEMBL1926646 (Bioorg Med Chem, 2011).
The source made the active and inactive calls. The calls are words filed in the database; no cut-off is given here.

Assays:
Dipeptidyl peptidase 8 = Dipeptidyl peptidase 8 (Homo sapiens, UniProt Q6V1X1); assay: Inhibition of human recombinant DPP-8 expressed in Sf9 cells using H-Gly-Pro-AMC as substrate preincubated for 30 mins before substrate addition measured after 20 mins by fluorescence assay
Rattus norvegicus [1] = assay: Inhibition of plasma DPP-4 activity in orally dosed Wistar/ST rat pretreated 30 mins before glucose challenge measured for 2 hrs during oral glucose tolerance test; format: functional, organism-based
Rattus norvegicus [2] = assay: Antidiabetic activity in Wistar/ST rat plasma assessed as reduction in glucose AUC (0 to 60 mins) at 1 mg/kg, po pretreated 30 mins before glucose challenge measured for 2 hrs by oral glucose tolerance test; format: functional, organism-based; design: dose 1 mg/kg
Rattus norvegicus [3] = assay: Increase in insulin level in Wistar/ST rat at 0.1 to 1 mg/kg, po pretreated 30 mins before glucose challenge measured after 10 mins; format: functional, organism-based
[4] = Drug excretion in dog feces assessed as unchanged drug at 1 mg/kg, iv measured over 24 hrs; format: ADME, organism-based, Canis lupus familiaris; design: dose 1 mg/kg, route intravenous; settings: faeces, read-out: AE
[5] = Intrinsic clearance in rat liver microsomes; format: ADME, Microsome
[6] = Intrinsic clearance in dog liver microsomes; format: ADME, Canis lupus familiaris, Microsome
[7] = Intrinsic clearance in monkey liver microsomes; format: ADME, Macaca mulatta, Microsome; settings: rhesus monkey
[8] = Intrinsic clearance in human liver microsomes; format: ADME, Microsome
[9] = Drug level in Sprague-Dawley rat plasma at 3 mg/kg at Tmax; format: ADME, organism-based; design: dose 3 mg/kg; settings: read-out: Drug uptake
Dipeptidyl peptidase 9 = Dipeptidyl peptidase 9 (Homo sapiens, UniProt Q86TI2); assay: Inhibition of human recombinant DPP-9 expressed in Sf9 cells using H-Gly-Pro-AMC as substrate preincubated for 30 mins before substrate addition measured after 20 mins by fluorescence assay
[10] = Total clearance in Sprague-Dawley rat at 1 mg/kg, iv; format: ADME, organism-based; design: dose 1 mg/kg, route intravenous; settings: in vivo
Rattus norvegicus [11] = assay: Volume of distribution at steady state in Sprague-Dawley rat at 1 mg/kg, iv; format: ADME, organism-based; design: dose 1 mg/kg, route intravenous; settings: in vivo
[12] = Cmax in Sprague-Dawley rat at 10 mg/kg, po; format: ADME, organism-based; design: dose 10 mg/kg, route oral; settings: in vivo
[13] = Cmax in Sprague-Dawley rat at 3 mg/kg, po; format: ADME, organism-based; design: dose 3 mg/kg, route oral; settings: in vivo
[14] = Tmax in Sprague-Dawley rat at 10 mg/kg, po; format: ADME, organism-based; design: dose 10 mg/kg, route oral; settings: in vivo
[15] = Tmax in Sprague-Dawley rat at 3 mg/kg, po; format: ADME, organism-based; design: dose 3 mg/kg, route oral; settings: in vivo
[16] = Terminal half life in Sprague-Dawley rat at 10 mg/kg, po; format: ADME, organism-based; design: dose 10 mg/kg, route oral; settings: in vivo, read-out: beta t1/2 (converted)
Rattus norvegicus [17] = assay: AUC in Sprague-Dawley rat at 10 mg/kg, po; format: ADME, organism-based, Plasma; design: dose 10 mg/kg, route oral; settings: in vivo
[18] = Oral bioavailability in Sprague-Dawley rat at 10 mg/kg; format: ADME, organism-based; settings: in vivo
[19] = Total clearance in Beagle dog at 0.2 mg/kg, iv; format: ADME, organism-based, Canis lupus familiaris; design: dose 0.2 mg/kg, route intravenous; settings: in vivo
Canis familiaris [20] = assay: Volume of distribution at steady state in Beagle dog at 0.2 mg/kg, iv; format: ADME, organism-based, Canis lupus familiaris; design: dose 0.2 mg/kg, route intravenous; settings: in vivo
[21] = Cmax in Beagle dog at 0.5 mg/kg, po; format: ADME, organism-based, Canis lupus familiaris; design: dose 0.5 mg/kg, route oral; settings: in vivo
[22] = Tmax in Beagle dog at 0.5 mg/kg, po; format: ADME, organism-based, Canis lupus familiaris; design: dose 0.5 mg/kg, route oral; settings: in vivo
[23] = Terminal half life in Beagle dog at 0.5 mg/kg, po; format: ADME, organism-based, Canis lupus familiaris; design: dose 0.5 mg/kg, route oral; settings: in vivo, read-out: beta t1/2 (converted)
Canis familiaris [24] = assay: AUC in Beagle dog at 0.5 mg/kg, po; format: ADME, organism-based, Canis lupus familiaris, Plasma; design: dose 0.5 mg/kg, route oral; settings: in vivo
[25] = Oral bioavailability in Beagle dog at 0.5 mg/kg; format: ADME, organism-based, Canis lupus familiaris; settings: in vivo
[26] = Plasma protein binding in rat at 20 ng/ml after 0.5 hrs by LC-MS/MS analysis; format: ADME, cell-free; settings: read-out: PPB (converted)
[27] = Plasma protein binding in rat at 2000 ng/ml after 0.5 hrs by LC-MS/MS analysis; format: ADME, cell-free; settings: read-out: PPB (converted)
[28] = Plasma protein binding in dog at 20 ng/ml after 0.5 hrs by LC-MS/MS analysis; format: ADME, cell-free, Canis lupus familiaris; settings: read-out: PPB (converted)
[29] = Plasma protein binding in dog at 2000 ng/ml after 0.5 hrs by LC-MS/MS analysis; format: ADME, cell-free, Canis lupus familiaris; settings: read-out: PPB (converted)
[30] = Plasma protein binding in human at 20 ng/ml after 0.5 hrs by LC-MS/MS analysis; format: ADME, cell-free; settings: read-out: PPB (converted)
[31] = Plasma protein binding in human at 2000 ng/ml after 0.5 hrs by LC-MS/MS analysis; format: ADME, cell-free; settings: read-out: PPB (converted)
Rattus norvegicus [32] = assay: Inhibition of plasma DPP-4 activity in Wistar/ST rat at 3 mg/kg, po pretreated 30 mins before glucose challenge measured for 2 hrs during oral glucose tolerance test; format: functional
Rattus norvegicus [33] = assay: Inhibition of plasma DPP-4 activity in Wistar/ST rat at 0.1 mg/kg, po pretreated 30 mins before glucose challenge measured for 2 hrs during oral glucose tolerance test; format: functional
Cytochrome P450 3A4 [34] = molecular target: T1, Cytochrome P450 3A4 (Homo sapiens, UniProt P08684); assay: Inhibition of CYP3A4; format: ADME
Cytochrome P450 2C19 = Cytochrome P450 2C19 (Homo sapiens, UniProt P33261); assay: Inhibition of CYP2C19; format: ADME
Cytochrome P450 2C9 [35] = molecular target: T2, Cytochrome P450 2C9 (Homo sapiens, UniProt P11712); assay: Inhibition of CYP2C9; format: ADME
Cytochrome P450 1A2 [36] = molecular target: T3, Cytochrome P450 1A2 (Homo sapiens, UniProt P05177); assay: Inhibition of CYP1A2; format: ADME
T3 sequence (P05177 whole entry): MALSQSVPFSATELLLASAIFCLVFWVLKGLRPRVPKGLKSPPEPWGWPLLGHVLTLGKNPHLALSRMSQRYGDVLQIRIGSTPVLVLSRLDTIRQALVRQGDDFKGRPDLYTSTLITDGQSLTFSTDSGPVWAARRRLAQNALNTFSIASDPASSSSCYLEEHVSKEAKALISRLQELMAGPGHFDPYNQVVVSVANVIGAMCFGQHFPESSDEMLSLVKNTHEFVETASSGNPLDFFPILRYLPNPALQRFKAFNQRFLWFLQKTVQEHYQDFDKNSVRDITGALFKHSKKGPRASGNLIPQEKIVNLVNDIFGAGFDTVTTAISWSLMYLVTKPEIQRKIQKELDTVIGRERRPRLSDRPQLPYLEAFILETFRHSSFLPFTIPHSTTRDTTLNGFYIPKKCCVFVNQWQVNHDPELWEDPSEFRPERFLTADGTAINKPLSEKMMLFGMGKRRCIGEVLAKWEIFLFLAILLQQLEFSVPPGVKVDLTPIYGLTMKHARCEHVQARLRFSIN

Cytochrome P450 2D6 = Cytochrome P450 2D6 (Homo sapiens, UniProt P10635); assay: Inhibition of CYP2D6; format: ADME
Cytochrome P450 3A4 [37] = molecular target: T1, Cytochrome P450 3A4; assay: Induction of CYP3A4 at 50 uM; format: ADME
Cytochrome P450 2C8 = molecular target: T4, Cytochrome P450 2C8 (Homo sapiens, UniProt P10632); assay: Induction of CYP2C8 at 50 uM; format: ADME
T4 sequence (P10632 whole entry): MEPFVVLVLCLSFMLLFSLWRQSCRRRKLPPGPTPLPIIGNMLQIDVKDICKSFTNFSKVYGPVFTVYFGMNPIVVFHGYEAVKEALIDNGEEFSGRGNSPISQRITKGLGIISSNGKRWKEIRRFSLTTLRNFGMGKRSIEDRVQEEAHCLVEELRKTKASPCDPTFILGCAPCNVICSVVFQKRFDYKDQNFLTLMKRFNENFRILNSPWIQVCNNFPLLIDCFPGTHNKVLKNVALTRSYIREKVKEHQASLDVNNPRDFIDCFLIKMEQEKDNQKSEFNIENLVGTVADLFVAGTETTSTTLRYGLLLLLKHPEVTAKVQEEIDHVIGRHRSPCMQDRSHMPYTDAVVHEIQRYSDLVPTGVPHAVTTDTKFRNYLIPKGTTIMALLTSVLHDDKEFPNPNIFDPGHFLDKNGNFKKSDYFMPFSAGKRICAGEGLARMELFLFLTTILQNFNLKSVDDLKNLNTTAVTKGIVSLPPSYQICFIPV

Cytochrome P450 2C9 [38] = molecular target: T2, Cytochrome P450 2C9; assay: Induction of CYP2C9 at 50 uM; format: ADME
Cytochrome P450 1A2 [39] = molecular target: T3, Cytochrome P450 1A2; assay: Induction of CYP1A2 at 50 uM; format: ADME
[40] = molecular target: Voltage-gated inwardly rectifying potassium channel KCNH2 (Homo sapiens, UniProt Q12809); assay: Inhibition of human ERG expressed in HEK293 cells by patch clamp assay; format: cell-based
Salmonella typhimurium = assay: Mutagenic activity in Salmonella Typhimurium by Ames test; format: toxicity, organism-based; settings: salmonella enterica subsp. enterica serovar typhimurium
[41] = Drug excretion in bile-duct cannulated Sprague-Dawley rat urine assessed as unchanged drug at 1 mg/kg, iv measured over 24 hrs; format: ADME, organism-based; design: dose 1 mg/kg, route intravenous; settings: read-out: AE
[42] = Drug excretion in bile-duct cannulated Sprague-Dawley rat bile assessed as unchanged drug at 1 mg/kg, iv measured over 24 hrs; format: ADME, organism-based; design: dose 1 mg/kg, route intravenous; settings: read-out: AE
[43] = Drug excretion in bile-duct cannulated Sprague-Dawley rat urine assessed as unchanged drug at 5 mg/kg, iv measured over 24 hrs; format: ADME, organism-based; design: dose 5 mg/kg, route intravenous; settings: read-out: AE
[44] = Drug excretion in bile-duct cannulated Sprague-Dawley rat bile assessed as unchanged drug at 5 mg/kg, iv measured over 24 hrs; format: ADME, organism-based; design: dose 5 mg/kg, route intravenous; settings: read-out: AE
[45] = Drug excretion in dog urine assessed as unchanged drug at 1 mg/kg, iv measured over 24 hrs; format: ADME, organism-based, Canis lupus familiaris; design: dose 1 mg/kg, route intravenous; settings: read-out: AE
Dipeptidyl peptidase 2 = Dipeptidyl peptidase 2 (Homo sapiens, UniProt Q9UHL4); assay: Inhibition of DPP-2 expressed in human Caco-2 cells using H-Lys-Ala-AMC as substrate preincubated for 30 mins before substrate addition measured after 20 mins by fluorescence assay; format: cell-based

T1 sequence (P08684 whole entry): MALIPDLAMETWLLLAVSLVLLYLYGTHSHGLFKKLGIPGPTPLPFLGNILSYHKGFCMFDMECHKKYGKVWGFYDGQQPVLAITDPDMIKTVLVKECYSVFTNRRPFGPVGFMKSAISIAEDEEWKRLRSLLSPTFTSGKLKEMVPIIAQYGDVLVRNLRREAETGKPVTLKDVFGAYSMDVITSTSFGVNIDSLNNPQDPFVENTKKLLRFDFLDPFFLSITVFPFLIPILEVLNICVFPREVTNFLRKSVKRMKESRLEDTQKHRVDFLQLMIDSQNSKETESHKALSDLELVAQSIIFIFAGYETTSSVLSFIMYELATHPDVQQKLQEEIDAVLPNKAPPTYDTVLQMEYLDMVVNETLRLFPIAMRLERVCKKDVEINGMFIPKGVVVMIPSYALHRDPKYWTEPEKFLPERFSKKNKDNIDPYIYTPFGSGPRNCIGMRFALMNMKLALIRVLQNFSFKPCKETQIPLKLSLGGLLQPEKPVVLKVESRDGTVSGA
T2 sequence (P11712 whole entry): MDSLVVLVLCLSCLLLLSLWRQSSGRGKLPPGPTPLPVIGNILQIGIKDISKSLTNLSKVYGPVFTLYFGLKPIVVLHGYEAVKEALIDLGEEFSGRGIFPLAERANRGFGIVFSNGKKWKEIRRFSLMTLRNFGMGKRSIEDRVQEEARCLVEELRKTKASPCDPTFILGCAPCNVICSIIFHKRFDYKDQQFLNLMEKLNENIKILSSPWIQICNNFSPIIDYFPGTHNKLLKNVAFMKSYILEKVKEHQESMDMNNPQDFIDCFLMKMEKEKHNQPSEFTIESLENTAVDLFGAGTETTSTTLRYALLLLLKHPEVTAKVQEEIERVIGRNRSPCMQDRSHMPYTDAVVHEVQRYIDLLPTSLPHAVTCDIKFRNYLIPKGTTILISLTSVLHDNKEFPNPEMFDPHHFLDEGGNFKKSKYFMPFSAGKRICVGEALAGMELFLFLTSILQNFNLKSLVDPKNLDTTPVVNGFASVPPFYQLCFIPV
Chain of Dipeptidyl peptidase 8 (Q6V1X1 whole entry): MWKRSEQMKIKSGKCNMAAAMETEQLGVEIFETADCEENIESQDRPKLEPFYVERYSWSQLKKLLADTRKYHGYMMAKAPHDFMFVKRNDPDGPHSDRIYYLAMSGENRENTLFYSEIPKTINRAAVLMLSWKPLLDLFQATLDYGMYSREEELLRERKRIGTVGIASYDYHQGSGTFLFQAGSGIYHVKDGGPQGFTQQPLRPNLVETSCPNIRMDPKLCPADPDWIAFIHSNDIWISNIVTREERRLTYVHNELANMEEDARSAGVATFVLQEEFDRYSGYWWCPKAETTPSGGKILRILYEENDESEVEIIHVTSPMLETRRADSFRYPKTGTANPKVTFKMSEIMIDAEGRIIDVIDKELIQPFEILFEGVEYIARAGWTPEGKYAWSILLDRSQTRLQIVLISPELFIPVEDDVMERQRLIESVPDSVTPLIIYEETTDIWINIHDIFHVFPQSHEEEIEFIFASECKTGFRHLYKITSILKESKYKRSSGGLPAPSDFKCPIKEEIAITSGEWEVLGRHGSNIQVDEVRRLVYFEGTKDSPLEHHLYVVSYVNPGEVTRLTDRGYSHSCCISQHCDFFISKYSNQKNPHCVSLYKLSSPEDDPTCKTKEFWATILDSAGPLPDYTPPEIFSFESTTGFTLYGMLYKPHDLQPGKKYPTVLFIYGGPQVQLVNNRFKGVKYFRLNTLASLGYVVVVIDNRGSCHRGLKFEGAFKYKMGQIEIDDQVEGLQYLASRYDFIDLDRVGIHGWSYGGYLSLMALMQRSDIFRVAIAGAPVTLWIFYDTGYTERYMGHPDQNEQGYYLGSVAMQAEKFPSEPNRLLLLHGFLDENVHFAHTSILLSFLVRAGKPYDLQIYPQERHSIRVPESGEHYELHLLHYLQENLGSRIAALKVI
Chain of Cytochrome P450 2D6 (P10635 whole entry): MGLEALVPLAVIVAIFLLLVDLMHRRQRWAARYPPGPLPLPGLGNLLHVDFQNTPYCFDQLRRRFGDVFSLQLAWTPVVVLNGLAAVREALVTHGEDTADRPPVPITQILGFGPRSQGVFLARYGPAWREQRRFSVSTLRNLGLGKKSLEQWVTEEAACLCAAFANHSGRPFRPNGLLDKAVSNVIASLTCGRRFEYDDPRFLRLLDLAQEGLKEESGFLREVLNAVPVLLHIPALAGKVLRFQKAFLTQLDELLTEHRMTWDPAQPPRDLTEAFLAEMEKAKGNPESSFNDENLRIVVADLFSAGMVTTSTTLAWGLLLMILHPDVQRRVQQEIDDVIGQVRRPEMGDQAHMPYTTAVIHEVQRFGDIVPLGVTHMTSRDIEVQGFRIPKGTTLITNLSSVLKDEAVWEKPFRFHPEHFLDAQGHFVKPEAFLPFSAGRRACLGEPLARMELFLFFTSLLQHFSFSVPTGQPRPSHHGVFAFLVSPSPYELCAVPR
Chain of Dipeptidyl peptidase 9 (Q86TI2 whole entry): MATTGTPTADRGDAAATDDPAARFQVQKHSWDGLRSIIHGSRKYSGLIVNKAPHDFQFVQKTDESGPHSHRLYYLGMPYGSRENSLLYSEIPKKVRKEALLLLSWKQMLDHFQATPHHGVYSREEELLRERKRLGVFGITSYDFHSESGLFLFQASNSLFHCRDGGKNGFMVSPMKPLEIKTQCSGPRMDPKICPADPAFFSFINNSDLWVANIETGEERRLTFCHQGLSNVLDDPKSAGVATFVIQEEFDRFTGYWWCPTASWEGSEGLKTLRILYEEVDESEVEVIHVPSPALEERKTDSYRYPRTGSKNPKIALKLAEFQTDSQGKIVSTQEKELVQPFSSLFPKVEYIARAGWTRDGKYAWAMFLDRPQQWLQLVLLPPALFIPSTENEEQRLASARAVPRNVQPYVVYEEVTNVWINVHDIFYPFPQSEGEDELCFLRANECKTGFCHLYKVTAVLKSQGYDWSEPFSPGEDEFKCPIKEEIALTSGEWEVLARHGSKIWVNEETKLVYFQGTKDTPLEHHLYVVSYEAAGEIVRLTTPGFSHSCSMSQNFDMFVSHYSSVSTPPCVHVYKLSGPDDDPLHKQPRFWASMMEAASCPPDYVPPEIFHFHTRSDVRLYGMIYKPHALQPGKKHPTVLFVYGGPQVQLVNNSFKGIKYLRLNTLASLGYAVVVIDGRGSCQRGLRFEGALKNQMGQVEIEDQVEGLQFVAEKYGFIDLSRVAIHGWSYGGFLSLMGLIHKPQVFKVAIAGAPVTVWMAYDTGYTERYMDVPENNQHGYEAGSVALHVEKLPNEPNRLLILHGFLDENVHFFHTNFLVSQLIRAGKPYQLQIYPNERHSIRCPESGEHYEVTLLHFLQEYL
Chain of Voltage-gated inwardly rectifying potassium channel KCNH2 (Q12809 whole entry): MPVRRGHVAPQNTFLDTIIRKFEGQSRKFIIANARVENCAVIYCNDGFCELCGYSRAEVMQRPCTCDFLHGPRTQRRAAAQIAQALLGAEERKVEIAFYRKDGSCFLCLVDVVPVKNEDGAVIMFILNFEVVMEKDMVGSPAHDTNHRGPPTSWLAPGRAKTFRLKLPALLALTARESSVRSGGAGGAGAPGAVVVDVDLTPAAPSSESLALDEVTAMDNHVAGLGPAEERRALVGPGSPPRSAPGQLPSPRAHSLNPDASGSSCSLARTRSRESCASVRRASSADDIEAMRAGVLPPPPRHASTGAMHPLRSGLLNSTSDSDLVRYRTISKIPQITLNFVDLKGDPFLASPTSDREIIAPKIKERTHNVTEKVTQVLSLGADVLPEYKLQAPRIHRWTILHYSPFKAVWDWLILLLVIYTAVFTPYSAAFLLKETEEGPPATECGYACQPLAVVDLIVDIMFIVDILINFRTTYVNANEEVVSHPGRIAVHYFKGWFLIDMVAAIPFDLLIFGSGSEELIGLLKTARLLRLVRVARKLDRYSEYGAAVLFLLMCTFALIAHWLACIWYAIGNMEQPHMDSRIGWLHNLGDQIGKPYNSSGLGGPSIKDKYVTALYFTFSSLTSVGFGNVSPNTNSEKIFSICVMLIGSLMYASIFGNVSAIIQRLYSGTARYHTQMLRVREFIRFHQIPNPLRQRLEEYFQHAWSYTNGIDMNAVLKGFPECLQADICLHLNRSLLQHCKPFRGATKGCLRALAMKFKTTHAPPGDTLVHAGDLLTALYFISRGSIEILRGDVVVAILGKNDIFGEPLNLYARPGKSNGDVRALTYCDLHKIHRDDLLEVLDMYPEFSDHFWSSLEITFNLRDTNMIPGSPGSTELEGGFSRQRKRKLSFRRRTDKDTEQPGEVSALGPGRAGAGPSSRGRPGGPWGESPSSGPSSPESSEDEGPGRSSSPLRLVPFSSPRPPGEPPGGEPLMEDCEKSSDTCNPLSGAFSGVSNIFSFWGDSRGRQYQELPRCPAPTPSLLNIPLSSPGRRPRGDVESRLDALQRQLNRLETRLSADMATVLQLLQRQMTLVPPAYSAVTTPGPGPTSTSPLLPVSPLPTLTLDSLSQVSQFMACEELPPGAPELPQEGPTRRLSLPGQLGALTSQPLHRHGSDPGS
Chain of Cytochrome P450 2C19 (P33261 whole entry): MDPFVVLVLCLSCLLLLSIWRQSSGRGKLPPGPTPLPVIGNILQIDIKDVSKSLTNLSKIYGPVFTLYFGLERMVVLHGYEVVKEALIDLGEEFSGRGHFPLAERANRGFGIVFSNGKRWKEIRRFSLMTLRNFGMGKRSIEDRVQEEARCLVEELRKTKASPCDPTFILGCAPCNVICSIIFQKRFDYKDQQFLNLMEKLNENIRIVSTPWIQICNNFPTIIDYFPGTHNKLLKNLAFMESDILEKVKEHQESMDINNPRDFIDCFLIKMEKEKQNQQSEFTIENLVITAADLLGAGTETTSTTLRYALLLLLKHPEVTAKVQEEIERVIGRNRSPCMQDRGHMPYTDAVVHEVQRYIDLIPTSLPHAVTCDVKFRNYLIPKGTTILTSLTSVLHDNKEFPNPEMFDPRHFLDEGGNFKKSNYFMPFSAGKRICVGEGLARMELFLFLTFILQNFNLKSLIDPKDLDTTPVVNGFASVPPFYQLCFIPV

Cc1nc2cc(C(C)(C)C)nn2c(C)c1C(=O)NCC(C)(C)NCC(=O)N1CCC[C@H]1C#N
IC50 (Dipeptidyl peptidase 8): > 100 µM

Cc1cc2ncc(C(=O)NCC(C)(C)NCC(=O)N3CCC[C@H]3C#N)cn2n1
inhibition (Rattus norvegicus [1]): Dose-dependent effect | Activity (Rattus norvegicus [2]): Active | Activity (Rattus norvegicus [3]): Active

Cc1cc2ncc(C(=O)NCC(C)(C)NCC(=O)N3CCC[C@H]3C#N)cn2n1.Cl [ANAGLIPTIN HYDROCHLORIDE]
dose excreted at 24 h [4]: 24% | CLint scaled [5]: 23.3 mL/min/kg | CLint scaled [6]: 1.67 mL/min/kg | CLint scaled [7]: 8.33 mL/min/kg | CLint scaled [8]: 5 mL/min/kg | Cmax [9]: 14 nM | IC50 (Dipeptidyl peptidase 8): 68 µM | IC50 (Dipeptidyl peptidase 9): 60 µM | clearance [10]: 33.3 mL/min/kg | Vdss (Rattus norvegicus [11]): 0.68 L/kg | Cmax [12]: 309 ng/mL | Cmax [13]: 62 ng/mL | Tmax [14]: 0.8 h | Tmax [15]: 2.3 h | half-life [16]: 1.9 h | AUC (Rattus norvegicus [17]): 1160 ng·h/mL | bioavailability [18]: 23% | clearance [19]: 10.8 mL/min/kg | Vdss (Canis familiaris [20]): 0.83 L/kg | Cmax [21]: 261 ng/mL | Tmax [22]: 1.5 h | half-life [23]: 1 h | AUC (Canis familiaris [24]): 824 ng·h/mL | bioavailability [25]: 100% | fraction unbound at 0.5 h, 20 ng/ml [26]: 0.227 | fraction unbound at 0.5 h, 2000 ng/ml [27]: 0.229 | fraction unbound at 0.5 h, 20 ng/ml [28]: 0.352 | fraction unbound at 0.5 h, 2000 ng/ml [29]: 0.482 | fraction unbound at 0.5 h, 20 ng/ml [30]: 0.708 | fraction unbound at 0.5 h, 2000 ng/ml [31]: 0.736 | inhibition in vivo at 3 mg/kg (Rattus norvegicus [32]): 95% | inhibition in vivo at 0.1 mg/kg (Rattus norvegicus [33]): 30% | IC50 (Cytochrome P450 3A4 [34]): > 10 µM | IC50 (Cytochrome P450 2C19): > 10 µM | IC50 (Cytochrome P450 2C9 [35]): > 10 µM | IC50 (Cytochrome P450 1A2 [36]): > 10 µM | IC50 (Cytochrome P450 2D6): > 10 µM | Activity (Cytochrome P450 3A4 [37]): Not Active | Activity (Cytochrome P450 2C8): Not Active | Activity (Cytochrome P450 2C9 [38]): Not Active | Activity (Cytochrome P450 1A2 [39]): Not Active | IC50 [40]: > 500 µM | Activity (Salmonella typhimurium): Non-toxic | dose excreted at 24 h [41]: 30% | dose excreted at 24 h [42]: 13% | dose excreted at 24 h [43]: 41% | dose excreted at 24 h [44]: 14% | dose excreted at 24 h [45]: 32%

Cc1cc2ncc(C(=O)NCC(C)(C)NCC(=O)N3CCC[C@H]3C#N)cn2n1 [ANAGLIPTIN]
IC50 (Dipeptidyl peptidase 2): 177 µM
